{"source": "patent US4427582A", "about": "“Antimicrobial disulfide prodrugs” (SmithKline Beckman Corporation, priority 1982, dated 1984)", "key": {"Candida albicans β311": {"tested_on": "Candida albicans β311", "assay": "Disk activity against Candida albicans β311", "type": "cell-based", "description": "(§1) For example, disk activity against Candida albicans β311 for the prodrug was 0.04 minimal inhibitory concentration with 0.01 for the warhead alone."}, "E. coli CB64recA/F'123": {"tested_on": "E. coli CB64recA/F'123", "assay": "Disc assay for inhibition on seeded agar plates (zones of inhibition after overnight incubation)", "type": "cell-based, Escherichia coli", "design": "unit not given here", "conditions": "for Zones of inhibition diameter: section C", "description": "The medium was that of Davis and Mingioli, supplemented with 4 μg/ml of thiamine and 50 μg/ml of required amino acid supplements with 1.5% agar for solid media. Seeded agar plates contained 0.1 ml of an overnight culture per 20 ml of molten agar (kept at 49°) containing appropriate supplements.\n[…] of test solution was added to 1/4\" diameter paper discs and the discs placed on the surface of agar plates which were incubated overnight at 37°. The bacterial strains of E. coli, whose strains are given hereafter, were obtained from the E. coli Genetic Stock Center.\nZones of inhibition on seeded agar plates after overnight incubation."}, "Fungal": {"tested_on": "Fungal", "assay": "Fungal activity in vitro, prodrug compared with non-latentiated warhead", "type": "cell-based", "description": "as §1"}, "[1]": {"conditions": "200 nmol per disc, overnight incubation"}, "[2]": {"conditions": "800 nmol per disc, overnight incubation"}, "[3]": {"conditions": "800 nmol per disc, overnight incubation, section B"}}, "note": "Where a SMILES comes first, the peptide text is derived from it. The star is where a group is joined. SPy = c1ccc(S*)nc1"}
{"compound": "[O-][n+]1ccccc1S", "note": "[2-mercaptopyridyl-1-one, reference compound]", "values": [{"measurement": "minimal inhibitory concentration (disk activity)", "setting": "Candida albicans β311", "result": 0.01}]}
{"compound": "C[C@H](N)C(=O)N[C@@H](C)C(=O)N[C@@H](CSSCCNc1cc(C(=O)O)nc(C(=O)O)c1)C(=O)O", "note": "[L-Ala--L-Ala--L-Ala--S--MEPDA, L-alanyl-L-alanyl-β-L-alanyl 2-(2,6-dicarboxy-pyridyl-4)-aminoethyl disulfide]", "values": [{"measurement": "Zone of inhibition diameter", "setting": "E. coli CB64recA/F'123; 30 nmol, tripeptide alone, section D", "result": 11}, {"measurement": "Zones of inhibition diameter", "setting": "E. coli CB64recA/F'123; 40 nmol per disc, overnight incubation", "result": 9}, {"measurement": "Zone of inhibition diameter", "setting": "E. coli CB64recA/F'123; 60 nmol, tripeptide alone, section D", "result": 15}, {"measurement": "Zones of inhibition diameter", "setting": "E. coli CB64recA/F'123; [1]", "result": 16}, {"measurement": "Zones of inhibition diameter", "setting": "E. coli CB64recA/F'123; [2]", "result": 24}]}
{"compound": "C[C@H](N)C(=O)N[C@@H](CSSc1ccccn1)C(=O)O", "note": "[L-Ala--L-Ala--S--2MP, L-alanyl-β-L-alanyl 2-pyridyl disulfide] (H-Ala-Cys(SPy)-OH)", "values": [{"measurement": "Zone of inhibition diameter", "setting": "E. coli CB64recA/F'123; [3]", "result": 15}]}
{"compound": "C[C@H](N)C(=O)N[C@@H](C)C(=O)N[C@@H](CSSc1ccccn1)C(=O)O", "note": "[L-ala- L-Ala--L-ala- S--2MP, L-alanyl-L-alanyl-β-L-alanyl 2-pyridyl disulfide] (H-Ala-Ala-Cys(SPy)-OH)", "values": [{"measurement": "Zone of inhibition diameter", "setting": "E. coli CB64recA/F'123; 40 nmol per disc, overnight incubation, section B", "result": "( )"}, {"measurement": "Zone of inhibition diameter", "setting": "E. coli CB64recA/F'123; 200 nmol per disc, overnight incubation, section B", "result": 14}, {"measurement": "Zone of inhibition diameter", "setting": "E. coli CB64recA/F'123; [3]", "result": 25}]}
{"compound": "C[C@H](NC(=O)C(N)CCCN)C(=O)N[C@@H](CSSCCNc1cc(C(=O)O)nc(C(=O)O)c1)C(=O)O", "note": "(stereo partly drawn) [Orn--L-Ala--L-Ala--S--MEPDA]", "values": [{"measurement": "Zones of inhibition diameter", "setting": "E. coli CB64recA/F'123; [1]", "result": 10}, {"measurement": "Zones of inhibition diameter", "setting": "E. coli CB64recA/F'123; [2]", "result": 12}]}
{"compound": "NCCCC(N)C(=O)NC(CSSCCNc1cc(C(=O)O)nc(C(=O)O)c1)C(=O)O", "note": "[Orn--L-Ala--S--MEPDA]", "values": [{"measurement": "Zones of inhibition diameter", "setting": "E. coli CB64recA/F'123; 250-500 nmol per disc, overnight incubation", "result": 13}]}
{"compound": "L-alanyl-β-L-alanyl N-oxy 2-pyridyl disulfide", "values": [{"measurement": "activity in vitro relative to 2-mercaptopyridyl-1-one in non-latentiated form", "setting": "Fungal", "result": "generally less activity"}, {"measurement": "potential for irritation relative to 2-mercaptopyridyl-1-one", "setting": "Potential for irritation", "result": "lower potential for irritation"}, {"measurement": "minimal inhibitory concentration (disk activity)", "setting": "Candida albicans β311", "result": 0.04}]}
